Laboratory results reported in patent publication US11639348B2, “Compositions and methods for neuraminidase detection and quantification” (priority 2018, dated 2023).

Tested on: A/Brisbane/59/2007 H1N1 Oseltamivir-Resistant NA
Assay type: biochemical, influenza A/Brisbane/59/2007 H1N1 Oseltamivir-Resistant
Settings: pH 7.6

Work on `CC(=O)NC1C(NC(=N)N)C(F)C(Oc2c(F)cc3c(C)cc(=O)oc3c2F)(C(=O)O)OC1[C@H](O)[C@H](O)CO` (stereo partly drawn) [compound 3, 5-Acetamido-4-guanidine-3-fluoro-3,4,5-trideoxy-2α-(4-methyl-6,8-difluoromethylumbelliferyl)-D-glycero-D-galactononulopyranosylnoic acid] yielded a Km of 41.6 µM and a kcat of 35.7 s⁻¹.
